Source: US8143243B2, “Compounds for the treatment of hepatitis C” (Bristol-Myers Squibb Company, priority 2007, dated 2012)

Key:
HCV NS5B = target: T1, HCV NS5B (Hepatitis C virus genotype 1b, UniProt Q9WMX2); assay: HCV NS5B RdRp enzyme assay (standard / modified); assay type: biochemical
T1 construct: The protein was expressed with an 18 amino acid C-terminal truncation to enhance the solubility; made in house; host or cells: E. coli BL21 (DE3)
Protocol: HCV NS5B RdRp cloning, expression, and purification. The cDNA encoding the NS5B protein of HCV, genotype 1b, was cloned into the pET21a expression vector. The protein was expressed with an 18 amino acid C-terminal truncation to enhance the solubility. The E. coli competent cell line BL21 (DE3) was used for expression of the protein. Cultures were grown at 37° C. for ˜4 hours until the cultures reached an optical density of 2.0 at 600 nm. The cultures were cooled to 20° C. and induced with 1 mM IPTG. Fresh ampicillin was added to a final concentration of 50 μg/ml and the cells were grown overnight at 20° C.
Cell pellets (3 L) were lysed for purification to yield 15-24 mgs of purified NS5B. The lysis buffer consisted of 20 mM Tris-HCl, pH 7.4, 500 mM NaCl, 0.5% triton X-100, 1 mM DTT, 1 mM EDTA, 20% glycerol, 0.5 mg/ml lysozyme, 10 mM MgCl2, 15 ug/ml deoxyribonuclease I, and Complete TM protease inhibitor tablets (Roche). After addition of the lysis buffer, frozen cell pellets were resuspended using a tissue homogenizer. To reduce the viscosity of the sample, aliquots of the lysate were sonicated on ice using a microtip attached to a Branson sonicator. The sonicated lysate was centrifuged at 100,000×g for 1 hr at 4° C. and filtered through a 0.2 μm filter unit (Corning).
The protein was purified using three sequential chromatography steps: Heparin sepharose CL-6B, polyU sepharose 4B, and Hitrap SP sepharose (Pharmacia). The chromatography buffers were identical to the lysis buffer but contained no lysozyme, deoxyribonuclease I, MgCl2 or protease inhibitor and the NaCl concentration of the buffer was adjusted according to the requirements for charging the protein onto the column. Each column was eluted with a NaCl gradient which varied in length from 5-50 column volumes depending on the column type. After the final chromatography step, the resulting purity of the enzyme is >90% based on SDS-PAGE analysis. The enzyme was aliquoted and stored at −80° C.
Standard HCV NS5B RdRp enzyme assay. HCV RdRp genotype 1b assays were run in a final volume of 60 μl in 96 well plates (Costar 3912). The assay buffer is composed of 20 mM Hepes, pH 7.5, 2.5 mM KCl, 2.5 mM MgCl2, 1 mM DTT, 1.6 U RNAse inhibitor (Promega N2515), 0.1 mg/ml BSA (Promega R3961), and 2% glycerol. All compounds were serially diluted (3-fold) in DMSO and diluted further in water such that the final concentration of DMSO in the assay was 2%. HCV RdRp genotype 1b enzyme was used at a final concentration of 28 nM. A polyA template was used at 6 nM, and a biotinylated oligo-dT12 primer was used at 180 nM final concentration. Template was obtained commercially (Amersham 27-4110). Biotinylated primer was prepared by Sigma Genosys. 3H-UTP was used at 0.6 μCi (0.29 μM total UTP). Reactions were initiated by the addition of enzyme, incubated at 30° C. for 60 min, and stopped by adding 25 μl of 50 mM EDTA containing SPA beads (4 μg/μl, Amersham RPNQ 0007). Plates were read on a Packard Top Count NXT after >1 hr incubation at room temperature.
Modified HCV NS5B RdRp enzyme assay. A modified enzyme assay was performed essentially as described for the standard enzyme assay except for the following: The biotinylated oligo dT12 primer was precaptured on streptavidin-coated SPA beads by mixing primer and beads in assay buffer and incubating at room temperature for one hour. Unbound primer was removed after centrifugation. The primer-bound beads were resuspended in 20 mM Hepes buffer, pH 7.5 and used in the assay at final concentrations of 20 nM primer and 0.67 μg/μl beads. Order of addition in the assay: enzyme (14 nM) was added to diluted compound followed by the addition of a mixture of template (0.2 nM), 3H-UTP (0.6 μCi, 0.29 μM), and primer-bound beads, to initiate the reaction; concentrations given are final. Reactions were allowed to proceed for 4 hours at 30° C.
IC50 values for compounds were determined using seven different [I]. […]

HCV replicon cells = assay: HCV replicon FRET / luciferase assay; assay type: cell-based; settings: Hepatitis C virus
From the text: FRET Assay Preparation. To perform the HCV FRET screening assay, 96-well cell culture plates were used. The FRET peptide (Anaspec, Inc.) (Taliani et al., Anal. Biochem. 1996, 240, 60-67) contains a fluorescence donor, EDANS, near one end of the peptide and an acceptor, DABCYL, near the other end. The fluorescence of the peptide is quenched by […] resonance energy transfer (RET) between the donor and the acceptor, but as the NS3 protease cleaves the peptide the products are released from RET quenching and the fluorescence of the donor becomes apparent. The assay reagent was made as follows: 5× cell Luciferase cell culture lysis reagent from Promega (#E153A) diluted to 1× with dH2O, NaCl added to 150 mM final, the FRET peptide diluted to 20 μM final from a 2 mM stock.
To prepare plates, HCV replicon cells, with or without a Renilla luciferase reporter gene, were trypsinized and placed into each well of a 96-well plate with titrated test compounds added in columns 3 through 12; columns 1 and 2 contained a control compound (HCV protease inhibitor), and the bottom row contained cells without compound. The plates were then placed in a CO2 incubator at 37° C.
Assays. Subsequent to addition of the test compounds described above (FRET Assay Preparation), at various times the plate was removed and Alamar blue solution (Trek Diagnostics, #00-100) was added per well as a measure of cellular toxicity. After reading in a Cytoflour 4000 instrument (PE Biosystems), plates were rinsed with PBS and then used for FRET assay by the addition of 30 ul of the FRET peptide assay reagent described above (FRET Assay Preparation) per well. The plate was then placed into the Cytoflour 4000 instrument which had been set to 340 excite/490 emission, automatic mode for 20 cycles and the plate read in a kinetic mode. Typically, the signal to noise using an endpoint analysis after the reads was at least three-fold. Alternatively, after Alamar blue reading, plates were rinsed with PBS, 50 ul of DMEM (high glucose) without phenol red was added and plates were then used for luciferase assay using the Promega Dual-Glo Luciferase Assay System.
Compound analysis was determined by quantification of the relative HCV replicon inhibition and the relative cytotoxicity values. To calculate cytoxicity values, the average Alamar Blue fluorescence signals from the control wells were set as 100% non-toxic. The individual signals in each of the compound test wells were then divided by the average control signal and multiplied by 100% to determine […]. To calculate the HCV replicon inhibition values, an average background value was obtained from the two wells containing the highest amount of HCV protease inhibitor at the end of the assay period. These numbers were similar to those obtained from naïve Huh-7 cells.
The background numbers were then subtracted from the average signal obtained from the control wells and this number was used as 100% activity. The individual signals in each of the compound test wells were then divided by the averaged control values after background subtraction and multiplied by 100% to determine percent activity. EC50 values for a protease inhibitor titration were calculated as the concentration which caused a 50% reduction in FRET or luciferase activity. The two numbers generated for the compound plate, percent cytoxicity and percent activity were used to determine compounds of interest for further analysis.

T1 sequence (Q9WMX2 2420-2992): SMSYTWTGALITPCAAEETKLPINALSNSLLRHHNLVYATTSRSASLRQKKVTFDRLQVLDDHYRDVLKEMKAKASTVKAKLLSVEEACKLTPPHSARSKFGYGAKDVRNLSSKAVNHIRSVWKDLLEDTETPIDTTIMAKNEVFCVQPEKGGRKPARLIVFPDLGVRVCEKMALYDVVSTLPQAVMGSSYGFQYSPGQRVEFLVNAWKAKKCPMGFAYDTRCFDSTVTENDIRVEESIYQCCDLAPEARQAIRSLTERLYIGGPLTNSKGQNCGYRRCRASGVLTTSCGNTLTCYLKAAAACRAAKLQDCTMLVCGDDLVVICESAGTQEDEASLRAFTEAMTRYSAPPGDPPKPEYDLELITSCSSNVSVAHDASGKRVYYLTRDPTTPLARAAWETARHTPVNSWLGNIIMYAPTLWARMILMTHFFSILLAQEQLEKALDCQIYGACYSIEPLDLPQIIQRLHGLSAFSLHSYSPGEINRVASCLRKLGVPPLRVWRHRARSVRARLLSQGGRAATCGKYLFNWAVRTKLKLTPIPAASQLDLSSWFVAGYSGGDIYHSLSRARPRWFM

Structure (SMILES)	IC50 (HCV NS5B) [nM]	EC50 (HCV replicon cells) [nM]
COc1ccc2c(c1)C=C(c1c(C(=O)N3C4CCC3CN(C)C4)cnn1C)Cn1c-2c(C2CCCCC2)c2ccc(C(=O)NS(=O)(=O)N(C)C)cc21	1 to 500	1 to 500
COc1ccc2c(c1)C=C(c1c(C(=O)N3C4CCC3CN(C)C4)cnn1C)Cn1c-2c(C2CCCCC2)c2ccc(C(=O)O)cc21	> 500	1 to 500
COc1ccc2c(c1)C=C(c1c(C(=O)N3[C@@H]4CC[C@H]3C[C@@](C)(O)C4)cnn1C)Cn1c-2c(C2CCCCC2)c2ccc(C(=O)NS(=O)(=O)N3CCOCC3)cc21	1 to 500	1 to 500
COc1ccc2c(c1)C=C(c1c(C(=O)N3C4COCC3COC4)cnn1C)Cn1c-2c(C2CCCCC2)c2ccc(C(=O)NS(=O)(=O)N3CCOCC3)cc21	1 to 500	1 to 500
COc1ccc2c(c1)C=C(c1c(C(=O)N3C4CCC3CC4)cnn1C)Cn1c-2c(C2CCCCC2)c2ccc(C(=O)NS(=O)(=O)C(C)C)cc21	–	1 to 500
COc1ccc2c(c1)C=C(c1c(C(=O)N3[C@@H]4CC[C@H]3C[C@@](C)(O)C4)cnn1C)Cn1c-2c(C2CCCCC2)c2ccc(C(=O)NS(=O)(=O)C(C)C)cc21	1 to 500	1 to 500
COc1ccc2c(c1)C=C(c1c(C(=O)N3C4COCC3COC4)cnn1C)Cn1c-2c(C2CCCCC2)c2ccc(C(=O)NS(=O)(=O)C(C)C)cc21	1 to 500	1 to 500
COc1ccc2c(c1)C=C(c1c(C(=O)N3C4CCC3CN(C)C4)cnn1C)Cn1c-2c(C2CCCCC2)c2ccc(C(=O)NS(=O)(=O)C(C)C)cc21	1 to 500	1 to 500
COc1ccc2c(c1)C=C(c1c(C(=O)N3CC4CCC(C3)N4C)cnn1C)Cn1c-2c(C2CCCCC2)c2ccc(C(=O)NS(=O)(=O)C(C)C)cc21	1 to 500	1 to 500
CCC(C)S(=O)(=O)NC(=O)c1ccc2c(C3CCCCC3)c3n(c2c1)CC(c1c(C(=O)N2C4CCC2CN(C)C4)cnn1C)=Cc1cc(OC)ccc1-3 (stereo not shown)	1 to 500	1 to 500
CCC(C)S(=O)(=O)NC(=O)c1ccc2c(C3CCCCC3)c3n(c2c1)CC(c1c(C(=O)N2C4CCCC2COC4)cnn1C)=Cc1cc(OC)ccc1-3 (stereo not shown)	1 to 500	1 to 500
CCC(C)S(=O)(=O)NC(=O)c1ccc2c(C3CCCCC3)c3n(c2c1)CC(c1c(C(=O)N2C4COCC2COC4)cnn1C)=Cc1cc(OC)ccc1-3 (stereo not shown)	1 to 500	1 to 500
COc1ccc2c(c1)C=C(c1c(C(=O)N3C4COCC3COC4)cnn1C)Cn1c-2c(C2CCCCC2)c2ccc(C(=O)NS(=O)(=O)C3CCCC3)cc21	1 to 500	1 to 500
COc1ccc2c(c1)C=C(c1c(C(=O)N3C4CCC3CN(C)C4)cnn1C)Cn1c-2c(C2CCCCC2)c2ccc(C(=O)NS(=O)(=O)C3CCCC3)cc21	1 to 500	1 to 500
COc1ccc2c(c1)C=C(c1c(C(=O)N3C4CCC3CN(C)C4)cnn1C)Cn1c-2c(C2CCCCC2)c2ccc(C(=O)NS(=O)(=O)CC(C)C)cc21	1 to 500	1 to 500
COc1ccc2c(c1)C=C(c1c(C(=O)N3C4CCCC3COC4)cnn1C)Cn1c-2c(C2CCCCC2)c2ccc(C(=O)NS(=O)(=O)CC(C)C)cc21	1 to 500	1 to 500
COc1ccc2c(c1)C=C(c1c(C(=O)N3C4COCC3COC4)cnn1C)Cn1c-2c(C2CCCCC2)c2ccc(C(=O)NS(=O)(=O)CC(C)C)cc21	1 to 500	1 to 500
COc1ccc2c(c1)C=C(c1c(C(=O)N3C4CCC3CN(C)C4)cnn1C)Cn1c-2c(C2CCCCC2)c2ccc(C(=O)NS(=O)(=O)C3CCC3)cc21	1 to 500	1 to 500
COc1ccc2c(c1)C=C(c1c(C(=O)N3C4CCCC3COC4)cnn1C)Cn1c-2c(C2CCCCC2)c2ccc(C(=O)NS(=O)(=O)C3CCC3)cc21	1 to 500	1 to 500
CCn1ncc(C(=O)N2C3CCC2CN(C)C3)c1C1=Cc2cc(OC)ccc2-c2c(C3CCCCC3)c3ccc(C(=O)NS(=O)(=O)C(C)C)cc3n2C1	–	1 to 500
COc1ccc2c(c1)C=C(c1c(C(=O)N3C4COCC3COC4)cnn1CC(F)(F)F)Cn1c-2c(C2CCCCC2)c2ccc(C(=O)NS(=O)(=O)C(C)C)cc21	–	1 to 500
COc1ccc2c(c1)C=C(c1c(C(=O)N3C4CCCC3COC4)cnn1C(C)C)Cn1c-2c(C2CCCCC2)c2ccc(C(=O)NS(=O)(=O)C(C)C)cc21	–	1 to 500
COc1ccc2c(c1)C=C(c1c(C(=O)N3C4CCC3CN(C)C4)c(C)nn1C(C)C)Cn1c-2c(C2CCCCC2)c2ccc(C(=O)NS(=O)(=O)C(C)C)cc21	–	1 to 500
CCn1nc(C)c(C(=O)N2C3CCC2CN(C)C3)c1C1=Cc2cc(OC)ccc2-c2c(C3CCCCC3)c3ccc(C(=O)NS(=O)(=O)C(C)C)cc3n2C1	–	1 to 500
CCn1ncc(C(=O)N2CC3CCC(C2)N3C)c1C1=Cc2cc(OC)ccc2-c2c(C3CCCCC3)c3ccc(C(=O)NS(=O)(=O)C(C)C)cc3n2C1	–	1 to 500
CCn1nc(C)c(C(=O)N2C3CCCC2COC3)c1C1=Cc2cc(OC)ccc2-c2c(C3CCCCC3)c3ccc(C(=O)NS(=O)(=O)C(C)C)cc3n2C1	–	1 to 500
COc1ccc2c(c1)C=C(c1c(C(=O)N3C4CCC3CN(C)C4)ncn1C(C)C)Cn1c-2c(C2CCCCC2)c2ccc(C(=O)NS(=O)(=O)C(C)C)cc21	–	1 to 500
COc1ccc2c(c1)C=C(c1c(C(=O)N3C4CCC3CN(C)C4)nnn1C(C)C)Cn1c-2c(C2CCCCC2)c2ccc(C(=O)NS(=O)(=O)N(C)C)cc21	–	1 to 500
